Assay results published in US9763905B2, “Therapeutic target for the treatment of cancers and related therapies and methods” (CHILDREN'S MEDICAL CENTER CORPORATION, priority 2013, dated 2017).
“Also recorded” adds a separate entry of the source. Like-named read-outs stand apart in the source and are kept apart here.

Experiments:
[1] = system: human foreskin fibroblast (Hs27) control cell line; experiment: Cell viability assay (Cell Titer Blue), Examples 1, 3, 4; assay type: cell-based; details: DHA 25-250 μM 144 hours, GW9508 25-150 μM 72 hours, TAK-875 0-0.4 μM
Protocol: (§1) The human foreskin fibroblast (Hs27) and human melanoma (A2058, A375, SK-Mel 3) cell lines were purchased from ATCC (Manassas Va.). Cells were plated in 48-well plates at a concentration of 7.5×10^3cells/well in either DMEM (Hs27, A2058, A375; Invitrogen/GIBCO, Grand Island N.Y.) or McCoy's 5a medium (SK-Mel 3; Invitrogen/GIBCO) supplemented with 10% FBS (Invitrogen/GIBCO) and incubated at 37° C. in a humidified atmosphere with 5% CO2. After 24 hours the medium was replaced with either DMEM (HS27, A2058, A375) or McCoy's 5a Medium (SK-Mel 3) containing 1% heat […] (Invitrogen/GIBCO) and 0.1% FA-free BSA (Invitrogen/GIBCO) with various concentrations of DHA (Martek, Columbia Md.) prepared in 4 μL of ETOH. DHA was provided at 25-250 μM, and in the studies that follow GW9508 was provided at 25-150 μM and TAK-875 was provided at 0-0.4 μM. Controls were treated with 4 μL of ETOH. All concentrations were tested in quadruplicate.
(§2) Following 144 hours of DHA treatment cells were trypsinized (Trypsin-EDTA; Invitrogen/GIBCO) and viable cells were counted using an absorbance-based cell viability assay (Cell Titer Blue Cell Viability Assay; Promega, Madison Wis.). During the treatment, medium was changed at 72 hours for the DHA studies. Cell counts were reported as a percent of the control cell count.
(§3) Human foreskin fibroblast (Hs27) and human melanoma (A2058, A375, SK-Mel 3) cell lines (ATCC, Manassas Va.) were plated in 48-well plates at a concentration of 7.5×10^3cells/well in either DMEM (Hs27, A2058, A375; Invitrogen/GIBCC, Grand Island N.Y.) or McCoy's 5a Medium (SK-Mel 3; Invitrogen/GIBCO) supplemented with 10% FBS (Invitrogen/GIBCO) and incubated at 37° C. in a humidified atmosphere with 5% CO2. After 24 hours the medium was replaced with either DMEM (HS27, A2058, A375) or McCoy's 5a Medium (SK-Mel 3) containing 1% heat inactivated-FBS (Invitrogen/GIBCO) and 0.1% FA-free BSA (Invitrogen/GIBCO) with various concentrations of GW9508 (Cayman Chemical, Ann Arbor Mich.) prepared in 4 μL of ETOH, as described in Example 1. Controls were treated with 4 μL of ETOH. All concentrations were tested in quadruplicate.
(§4) Following 72 hours of treatment (GW9508) cells were trypsinized (Trypsin-EDTA; Invitrogen/GIBCO) and viable cells were counted using an absorbance-based cell viability assay (Cell Titer Blue Cell Viability Assay; Promega, Madison Wis.). Cell counts are reported as a percent of the control cell count.
(§5) Given the high expression of GPR40 and the negligible expression of GPR120 by the human melanoma cells evaluated, further studies were performed using the selective, potent and orally bioavailable GPR40 agonist, TAK-875 (Selleck Chemicals) consistent with the methods disclosed in Examples 1 and 3. In particular, such studies were performed to evaluate the ability of TAK-875 to exert an inhibitory effect on human melanoma cell lines in vitro relative to a control fibroblast cell line (Hs27) and the human breast cancer cell line MCF-7, as well as to further evaluate the mechanisms via which compounds such as omega-3 fatty acids exert their cellular effects on human melanoma.

[2] = system: control human foreskin fibroblast (Hs27) cell line; experiment: Cell viability assay (Cell Counting Kit-8), Example 5; assay type: cell-based; details: DHA 0-250 μM, TAK-875 0-0.4 μM, 3 and 6 days
Protocol: (§6) Neuroblastoma cell lines used to perform the present studies include: ShSY5Y, IMR-32, SK-NSH, SK-NAS. Melanoma cell lines used include: A2058, A375, and SK-Mel3. Medullary thyroid carcinoma cell line used includes: TT. Malignant peripheral nerve sheath tumor used includes: sNF94.3. Control cell lines used included: human foreskin fibroblast line (Hs27), breast cancer cell lines (MCF-7 and […]), human umbilical vein endothelial cells (HUVEC) and human melanocytes (HMn). ShSY5Y was cultured in MEM/F12 containing 10% heat inactivated fetal bovine serum (FBS) (Invitrogen/GIBCO, Grand Island, N.Y.). IMR-32 was cultured in MEM containing 10% FBS (Invitrogen/GIBCO). SK-NSH was cultured in RPMI-1640 containing 10% FBS (Invitrogen/GIBCO). SK-Mel 3 was cultured in McCoy's 5a containing 10% FBS (Invitrogen/GIBCO). TT was cultured in F-12K containing 10% FBS (ATCC, Manassas, Va.). […] was cultured in Leibovitz's L-15 containing 10% FBS (ATCC). HUVEC was cultured with EGM-2 Bullet Kit (Lonza, Hopkinton, Mass.). HMn were cultured in MGM-4 (Lonza). All other cell lines were cultured in DMEM with 10% FBS (Invitrogen/GIBCO). Cells were incubated at 37° C. in a humidified atmosphere with 5% CO2. Cells were plated in 96-well plates to approximately 50% confluence prior to initial treatment.
(§7) Cells treated with the GPR40 agonist DHA had growth media that was replaced with each respective media containing 1% FBS and 0.1% FA-free BSA with varying concentrations of DHA (Cayman Chemical, Ann Arbor, Mich.) ranging from 0-250 μM solubilized in ethanol (Pharmco-Aaper, Brookfield, Conn.). Cells treated with the GPR40 agonist TAK-875 had growth media that was replaced with each respective media containing 10% FBS with varying concentration of TAK-875 (Selleck Chemicals, Houston, Tex.) ranging from 0-0.4 μM solubilized in dimethyl sulfoxide (Sigma-Aldrich, St. Louis, Mo.). Following 72 hours (TAK-875) or 144 hours (DHA) of treatment, viable cells were quantified using an absorbance-based cell viability assay (Cell Counting Kit-8, Dojindo, Kumamoto, Japan).

[3] = system: A2058 human melanoma cell line; experiment: Cell viability assay (Cell Titer Blue), Examples 1, 3, 4; assay type: cell-based; details: DHA 25-250 μM 144 hours, GW9508 25-150 μM 72 hours, TAK-875 0-0.4 μM
Protocol: as §1, §2, §3, §4, §5

[4] = system: A375 human melanoma cell line; experiment: as above; assay type: cell-based; details: DHA 25-250 μM 144 hours, GW9508 25-150 μM 72 hours, TAK-875 0-0.4 μM
Protocol: as §1, §2, §3, §4, §5

[5] = system: SK-Mel3 human melanoma cell line; experiment: as above; assay type: cell-based; details: DHA 25-250 μM 144 hours, GW9508 25-150 μM 72 hours, TAK-875 0-0.4 μM
Protocol: as §1, §2, §3, §4, §5

[6] = system: human melanoma (A2058) xenograft; experiment: Murine subcutaneous xenograft model of human melanoma, established tumors, oral TAK-875; assay type: in vivo, SCID mice; details: 100 mg/kg/day oral, N=7/group
Protocol: The subcutaneous murine xenograft model of human melanoma was created in 6-week old severe combined immunodeficiency (SCID) mice (Jackson Laboratories, Bar Harbor, Me.) by subcutaneous injection of 1×10^6 human melanoma cells (A2058) in […] of PBS (Invitrogen/GIBCC) into the left flank of each animal. Animal weights and tumor dimensions were measured every 48 hours. Tumor volume was calculated using the following formula: volume=length×width^2×0.52. In accordance with the methods disclosed in Example 2, a murine subcutaneous xenograft model of human melanoma was prepared and used to test the effect of once daily oral TAK-875 on the growth of established melanoma tumors in vivo. Animals were treated daily for 14 days with either a control solution or an oral solution of TAK-875 (100 mg/kg/day) from the time their tumor volume reached 200 mm^3. […] Most importantly the change in tumor volume from start of drug treatment to completion of 14 days of treatment, was 77% lower in the TAK-875 group compared to placebo (P=0.04, FIG. 3G).

[7] = system: SK-NSH neuroblastoma cell line; experiment: Cell viability assay (Cell Counting Kit-8), Example 5; assay type: cell-based, human; details: DHA 0-250 μM, TAK-875 0-0.4 μM, 3 and 6 days
Protocol: as §6, §7

[8] = system: IMR-32 neuroblastoma cell line; experiment: as above; assay type: cell-based, human; details: DHA 0-250 μM, TAK-875 0-0.4 μM, 3 and 6 days
Protocol: as §6, §7

[9] = system: ShSY5Y neuroblastoma cell line; experiment: as above; assay type: cell-based, human; details: DHA 0-250 μM, TAK-875 0-0.4 μM, 3 and 6 days
Protocol: as §6, §7

[10] = system: SK-NAS neuroblastoma cell line; experiment: as above; assay type: cell-based, human; details: DHA 0-250 μM, TAK-875 0-0.4 μM, 3 and 6 days
Protocol: as §6, §7

[11] = system: breast cancer cell line MDA-MB-321; experiment: as above; assay type: cell-based, human; details: TAK-875, 6 days
Protocol: as §6, with “treatment. […]” for “treatment.”

[12] = system: breast cancer cell line MCF-7; experiment: as above; assay type: cell-based, human; details: TAK-875, 6 days
Protocol: as §6, with “treatment. […]” for “treatment.”

[13] = system: A2058 human melanoma cell line; experiment: as above; assay type: cell-based; details: DHA 0-250 μM, TAK-875 0-0.4 μM, 6 days
Protocol: as §6
as §7, with “Following 72 hours (TAK-875) or 144 hours (DHA) of treatment, viable cells were quantified using an absorbance-based cell viability assay (Cell Counting Kit-8, Dojindo, Kumamoto, Japan).” left out

[14] = system: SK-Mel 3 human melanoma cell line; experiment: as above; assay type: cell-based; details: DHA 0-250 μM, TAK-875 0-0.4 μM, 6 days
Protocol: as §6
as §7, with “Following 72 hours (TAK-875) or 144 hours (DHA) of treatment, viable cells were quantified using an absorbance-based cell viability assay (Cell Counting Kit-8, Dojindo, Kumamoto, Japan).” left out

[15] = system: A375 human melanoma cell line; experiment: as above; assay type: cell-based; details: DHA 0-250 μM, TAK-875 0-0.4 μM, 6 days
Protocol: as §6
as §7, with “Following 72 hours (TAK-875) or 144 hours (DHA) of treatment, viable cells were quantified using an absorbance-based cell viability assay (Cell Counting Kit-8, Dojindo, Kumamoto, Japan).” left out

[16] = rat, in vivo; cited from earlier work
[17] = healthy human subjects, very high doses; cited from earlier work
[18] = system: human umbilical vein endothelial cells (HUVEC); experiment: Cell viability assay (Cell Counting Kit-8), Example 5; assay type: cell-based; details: DHA 0-250 μM, TAK-875 0-0.4 μM, 3 and 6 days
Protocol: as §6, §7

[19] = system: malignant peripheral nerve sheath tumor (MPNST) (sNF94.3) cell line; experiment: as above; assay type: cell-based; details: DHA 0-250 μM, TAK-875 0-0.4 μM, 3 and 6 days
Protocol: as §6, §7

[20] = system: human medullary thyroid carcinoma cell line (TT); experiment: as above; assay type: cell-based; details: DHA 0-250 μM, TAK-875 0-0.4 μM, 3 and 6 days
Protocol: as §6, §7

[21] = system: human melanocytes (HMn); experiment: as above; assay type: cell-based; details: HMn primary melanocytes; DHA 0-250 μM, TAK-875 0-0.4 μM; 3 and 6 days
Protocol: as §6, §7

[22] = system: human breast cancer cell line MCF-7; experiment: Cell viability assay, Example 4; assay type: cell-based; details: TAK-875

For `CC/C=C\C/C=C\C/C=C\C/C=C\C/C=C\C/C=C\CCC(=O)O` [DHA, docosahexaenoic acid], the “effect on growth / toxicity in control fibroblasts” value (from here on “effect on growth / toxicity”) [1] was “no growth inhibition” and the “cell viability / toxicity in control cell line” value [2] was “Little to no effect; also recorded: little effect; also recorded: Toxicity was observed in the control Hs27 cell line at high concentrations”.
For `O=C(O)CCc1ccc(NCc2cccc(Oc3ccccc3)c2)cc1` [GW9508], the “effect on growth / viable cell count (percent of control)” value [3] was “profound inhibitory effect on the growth”, the “effect on growth / toxicity” value [1] was “not toxic” and the “effect on growth / viable cell count (percent of control)” value [4] was “profound inhibitory effect on the growth”. For the same compound, the “effect on growth / viable cell count (percent of control)” value [5] was “profound inhibitory effect on the growth”.
For `Cc1cc(OCCCS(C)(=O)=O)cc(C)c1-c1cccc(COc2ccc3c(c2)OC[C@H]3CC(=O)O)c1` [TAK-875], the “tumors smaller in volume versus placebo” value ([6]; 14 days, from tumor volume 200 mm^3, P=0.03) was 62%, the “tumors smaller in weight versus placebo” value ([6]; 14 days, from tumor volume 200 mm^3, P=0.07) was 46% and the “animal weights versus placebo” value ([6]; 14 days) was “not significantly different”. For the same compound, the “change in tumor volume from start of drug treatment to completion of 14 days, lower compared to placebo” value ([6]; P=0.04) was 77%, the cell viability [7] was “significantly attenuated viability” and the cell viability [8] was “significantly attenuated viability”. The cell viability [9] was “significantly attenuated viability”, the cell viability [10] was “significantly attenuated viability” and the cell viability [11] was “decrease in cell viability was observed at high concentrations”. For the same compound, the cell viability [12] was “decrease in cell viability was observed at high concentrations”, the “effect on growth / viable cell count (percent of control)” value [3] was “robust and selective cytotoxic effect” and the “effect on growth / toxicity” value [1] was “did not influence the growth”. For the same compound, the “effect on growth / viable cell count (percent of control)” value [4] was “robust and selective cytotoxic effect”, the “effect on growth / viable cell count (percent of control)” value [5] was “robust and selective cytotoxic effect” and the cell viability [13] was “significant decrease in cell viability”. The cell viability [14] was “significant decrease in cell viability”, the cell viability [15] was “significant decrease in cell viability” and the safety and tolerability [16] was “safe and well tolerated”. For the same compound, the safety and tolerability [17] was “safe and well tolerated”, the cell viability [18] was “minimal change in viability” and the cell viability [19] was “pronounced effect”. For the same compound, the cell viability [20] was “pronounced decrease”, the “cell viability / toxicity in control cell line” value [2] was “Little to no effect; also recorded: little effect; also recorded: Toxicity was observed in the control Hs27 cell line at high concentrations” and the cell viability [21] was “dramatic decrease in cell viability”. The effect on growth [22] was “did not influence the growth”.
